What was measured:
PDE4 = PDE4 isolated enzyme two-step radioenzymatic PDE assay; format: biochemical; conditions: 1 µM cAMP substrate, 30°C, 30 min; read-out: inhibition concentration value (IC50)
Rat cortical neurons = assay: Aβ oligomer-induced neuronal death, MTT assay; format: cell-based, Wistar rat; conditions: 24 h
Description: Cell culture: Cortical neurons from embryonic day 16-17 Wistar rat fetuses were prepared as follows. Dissociated cortical cells were plated at 4.5-5.0 10^4 cells/cm^2 in plastic dishes precoated with 1.5 mg/mL polyornithine (Sigma). Cells were cultured in a chemically defined Dulbecco's modified eagle's/F12 medium free of serum (Gibco) and supplemented with hormones, proteins and salts. Cultures were kept at 35°C in a humidified 5% CO2 atmosphere, and at 6-7 DIV, cortical population was determined to be at least 97% neuronal by immunostaining.
Preparation of low-n β-amyloid (Aβ) oligomers: The peptide used is Aβ1-42 from Bachem (ref H1368, batch number: 1025459). The oligomeric preparation contains a mixture of stable dimers, trimers and tetramers of Aβ1-42 peptide, as well as monomeric forms of the peptide.
Preparation of tivozanib solution: Tivozanib was dissolved in DMSO. A stock solution (10 mM DMSO) was prepared, and aliquots were stored at -20 °C before use.
Treatment and measurement of cell viability: All experiments were done in 48 well plates. […] Following 24h of incubation, neuronal viability was monitored using the MTT assay (Garcia et al., The Journal of Neuroscience, June 2,2010, 30(22), 7516-7527; Desbene et al., Neurobiology of Aging, 33 (2012) 1123.e17-1123.e-29). Data were obtained from one experiment with 4 determinations each and expressed as means + SD.

[1] = system: cAMP level in HEK293 cells; assay: Measurement of cAMP level by ELISA; format: cell-based
Description: Measurement of cAMP level: HEK293 cells were cultured in DMEM medium containing 10 % FCS. Cells were plated in 12-well plates at a density of 400.000 cells per well and cultured for 24h at 37°C in a humidified 6% CO2 atmosphere. Cells were then incubated for 1 h with increasing concentrations of tivozanib and then treated with vehicle or 25 µM forskolin for 15 minutes. Following washing steps and cell lysis, cellular level of cAMP level was monitored using an ELISA assay (Cyclic AMP XP assay kit - Cell signaling). Data are from 2 experiments performed in duplicate. Data are represented as fold increase of cAMP as compared to experiment using forskolin only, designed as 1.0 (figure 7).
Effects of tivozanib on cAMP level in HEK293 cells: In order to evaluate the potential effect of tivozanib on PDE4 activity in living cells, the HEK293 cell line was used. These cells are widely used for identification and validation of PDE4 modulators in mild as well as high throughput screening assays. Indeed, the control of cAMP level and hydrolysis in HEK293 cells are predominantly supported by PDE4.

Male C57BL/6 mice = assay: Y-maze test of spatial working memory after icv Aβ oligomers; format: in vivo
Description: Animals: All animal experiments were carried out according to the National Institute of Health (NIH) guidelines for the care and use of laboratory animals, and approved by the French Ministry for Research and Technology. Animals were housed at a standard temperature (22±1°C) and in a light-controlled environment (lights on from 7 am to 8 pm) with ad libitum access to food and water. Upon arrival, Male C57BL/6 mice (C57BL/6J Rj, ref SC-CJ-12w-M, Janvier, France) were group housed. From 1 week before the experiment started and until the end of the experiment, mice were individually housed. Animals were monitored twice-a-day by laboratory personnel (8 am and 4 pm). […]
Surgery and intracerebroventricular (icv) infusion of low-n Aβ oligomers: Immediate spatial working memory performance was assessed by recording spontaneous alternation behavior in a Y-maze system, as previously described (Youssef et al., Neurobiology of Aging, 29 (2008) 1319-1333; Garcia et al., The Journal of Neuroscience, June 2,2010, 30(22) 7516-7527). […]
Investigation of the spatial working memory - Y maze test: Immediate spatial working memory performance was assessed by recording spontaneous alternation behavior in a Y-maze system, as previously described (Youssef et al., 2008; Garcia et al., 2010, see references above). […]

IC50 (PDE4) [µM]	Molecule	Aβ oligomer-induced cell death (cell viability, MTT) (Rat cortical neurons; tivozanib up to 10 µM added simultaneously with 1 µM Aβ1-42 oligomers)	cAMP level ([1]; absence of forskolin, increasing concentrations up to 50 µM, 1 h)	cAMP level ([1]; presence of 25 µM forskolin for 15 minutes, increasing concentrations, 1 h pre-incubation)	behavior and spontaneous alternation performance (Male C57BL/6 mice; group C: 30 mg/kg/day per os, vehicle icv, test day +4)	spatial working memory (spontaneous alternation) (Male C57BL/6 mice; group D: 30 mg/kg/day per os day -2 to +4, Aβ oligomers 50 pmol icv day 0, test day +4)	decrease of cell viability (Rat cortical neurons; 1 µM Aβ1-42 oligomers alone, figure 6B CTRL) [%]
4.8	COc1cc2nccc(Oc3ccc(NC(=O)Nc4cc(C)on4)c(Cl)c3)c2cc1OC [tivozanib, N-{2-chloro-4-[(6,7-dimethoxy-4-quinolyl)oxy]-phenyl}-N'-(5-methyl-3-isoxazolyl)urea]	protected cells towards Aβ oligomer-induced cell death	did not result in an increase of cAMP level	dose-response accumulation of cAMP	displayed a normal behavior	significantly improved spatial working memory	–
–	Aβ1-42 oligomers	–	–	–	–	–	~40
